Data from ChEMBL document CHEMBL5034043, “Bifunctional Compounds as SMARCA2 Degraders for Treating Cancer” (ACS Med Chem Lett, 2022).

Target: SWI/SNF-related matrix-associated actin-dependent regulator of chromatin subfamily A member 2 (Homo sapiens, UniProt P51531)
Assay: Induction of degradation of HiBit-tagged SMARCA2 in human A549 cells incubated for 6 hrs by NanoGlo HiBiT lytic assay
Assay type: cell-based

SWI/SNF-related matrix-associated actin-dependent regulator of chromatin subfamily A member 2, sequence (P51531 whole entry): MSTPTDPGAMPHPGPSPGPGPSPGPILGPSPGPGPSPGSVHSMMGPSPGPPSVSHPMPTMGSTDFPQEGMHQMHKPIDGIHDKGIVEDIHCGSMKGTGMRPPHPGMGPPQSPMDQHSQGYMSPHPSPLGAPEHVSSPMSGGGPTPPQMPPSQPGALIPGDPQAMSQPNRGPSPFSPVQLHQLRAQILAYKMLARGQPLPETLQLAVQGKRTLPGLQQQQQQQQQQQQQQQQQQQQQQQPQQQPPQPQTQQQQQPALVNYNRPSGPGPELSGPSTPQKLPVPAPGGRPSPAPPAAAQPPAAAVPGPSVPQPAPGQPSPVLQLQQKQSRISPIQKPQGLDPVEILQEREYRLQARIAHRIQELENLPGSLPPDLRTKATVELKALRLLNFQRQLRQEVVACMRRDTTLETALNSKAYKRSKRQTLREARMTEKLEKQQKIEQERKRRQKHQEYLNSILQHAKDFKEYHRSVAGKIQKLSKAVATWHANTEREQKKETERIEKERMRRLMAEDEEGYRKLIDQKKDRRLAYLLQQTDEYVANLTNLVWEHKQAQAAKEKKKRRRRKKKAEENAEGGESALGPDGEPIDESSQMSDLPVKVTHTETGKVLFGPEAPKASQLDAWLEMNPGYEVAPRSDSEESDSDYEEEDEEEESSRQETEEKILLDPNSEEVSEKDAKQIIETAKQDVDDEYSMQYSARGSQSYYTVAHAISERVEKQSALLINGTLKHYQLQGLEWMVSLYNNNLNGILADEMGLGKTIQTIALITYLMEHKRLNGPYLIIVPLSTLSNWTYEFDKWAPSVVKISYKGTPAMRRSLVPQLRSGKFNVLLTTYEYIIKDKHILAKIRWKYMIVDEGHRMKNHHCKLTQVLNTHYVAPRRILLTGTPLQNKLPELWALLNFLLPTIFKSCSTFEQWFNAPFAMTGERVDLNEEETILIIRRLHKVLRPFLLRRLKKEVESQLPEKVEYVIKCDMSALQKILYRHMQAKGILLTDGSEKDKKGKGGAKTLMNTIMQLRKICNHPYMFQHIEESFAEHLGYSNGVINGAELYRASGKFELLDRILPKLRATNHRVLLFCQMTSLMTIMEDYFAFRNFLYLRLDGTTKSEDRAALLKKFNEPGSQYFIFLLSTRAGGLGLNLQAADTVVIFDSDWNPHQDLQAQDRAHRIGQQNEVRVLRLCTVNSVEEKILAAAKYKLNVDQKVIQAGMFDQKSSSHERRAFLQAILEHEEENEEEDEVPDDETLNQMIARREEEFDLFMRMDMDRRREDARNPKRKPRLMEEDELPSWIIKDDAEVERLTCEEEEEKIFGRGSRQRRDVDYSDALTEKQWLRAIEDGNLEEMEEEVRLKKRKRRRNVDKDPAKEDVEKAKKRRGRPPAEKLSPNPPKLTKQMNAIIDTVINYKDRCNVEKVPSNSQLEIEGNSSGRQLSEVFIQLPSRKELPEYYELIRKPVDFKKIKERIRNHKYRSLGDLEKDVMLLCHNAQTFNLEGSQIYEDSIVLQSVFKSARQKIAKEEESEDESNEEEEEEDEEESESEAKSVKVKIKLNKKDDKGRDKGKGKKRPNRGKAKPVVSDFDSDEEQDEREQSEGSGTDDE

| SMILES | DC50 [nM] |
| --- | --- |
| Nc1nnc(-c2ccccc2O)cc1N1CCN(c2cccc(CN3CCN(C(=O)C4CCN(c5ccc6c(c5)C(=O)N(C5CCC(=O)NC5=O)C6=O)CC4)CC3)c2)C2(CC2)C1 (stereo unspecified) | 4 |
| Nc1nnc(-c2cc(F)ccc2O)cc1N1CC2CCC(C1)N2c1cccc(CN2CCN(C(=O)C3CCN(c4ccc5c(c4)C(=O)N(C4CCC(=O)NC4=O)C5=O)CC3)CC2)c1 (stereo unspecified) | 3 |
| Nc1nnc(-c2ccccc2O)cc1N1CC2CCC(C1)N2c1cccc(OCCN2CCN(CCCC3CCN(c4ccc5c(c4)C(=O)N(C4CCC(=O)NC4=O)C5=O)CC3)CC2)c1 (stereo unspecified) | 2 |
| Nc1nnc(-c2ccccc2O)cc1N1CC(Oc2cccc(CN3CCN(C(=O)CN4CCC(c5ccc(NC6CCC(=O)NC6=O)cc5)CC4)CC3)c2)C1 (stereo unspecified) | 3 |
| Nc1nnc(-c2ccccc2O)cc1N1CCC(C(=O)N2CCC(C(=O)N3CCN(c4ccc(C5CCC(=O)NC5=O)cc4)CC3)CC2)(c2ccccc2)CC1 (stereo unspecified) | 3 |
| Nc1nnc(-c2ccccc2O)cc1N1CC2CCC(C1)N2c1cccc(OCCN2CCN(CC3CCN(c4ccc5c(c4)C(=O)N(C4CCC(=O)NC4=O)C5=O)CC3)CC2)c1 (stereo unspecified) | 2 |
